According to patent publication US4808409A, “Low cariogenic sweetening agents” (Board of Trustees, University of Illinois, priority 1984, dated 1989):

Key:
[1] = test system: S. mutans; assay: Cariogenicity: acid production by S. mutans from sweetener; format: cell-based
Experimental: In a first test, the ability of microbes to utilize this sweetener source as a nutrient and convert it to acidic by-products was determined.

[2] = test system: Salmonella typhimurium strain TM677; assay: Forward mutation assay; format: cell-based; details: synthetic hernandulcin
[3] = test system: human taste panel; assay: Human taste panel magnitude estimation of sweetness intensity and pleasantness; details: in words; synthetic racemic hernandulcin
Text: Solutions were presented to the subjects in a randomized fashion and were sampled in duplicate. After tasting, each solution was expectorated, and the mouth was washed with distilled water.

[4] = test system: S. mutans; assay: Cariogenicity: inhibition of acid production from sucrose by S. mutans; format: cell-based; details: 428 micrograms per unit volume sucrose, 5,000 micrograms per unit volume sweetener
Experimental: In a second test, the ability of the test compound to inhibit acid production from sucrose by S. mutans was determined.

[5] = test system: male Swiss-Webster mice; assay: in vivo; details: oral, in words
Experimental: Compounds were suspended in a minimum volume of 1% sodium carboxymethylcellulose, and were administered by oral intubation at the doses indicated in Table II.
^a Male SwissWebster mice (9 or 10 animals per dose).
^d Mortality = number of mice dying within 14 days/number of starting
^e Mortality = number of mice dying within 24 hours/number of startin

Structure (SMILES): CC(C)=CCC[C@@](C)(O)[C@H]1CCC(C)=CC1=O (relative stereo) [synthetic hernandulcin, 6-(1',5'-dimethyl-1'-hydroxyhex-4'-en-1'-yl)-3-methyl-2-cyclohexen-1-one]
- Rate of acid production at 5,000 micrograms per unit volume ([1]; 5,000 micrograms per unit volume sweetener): 2.6×10^-5 mEq acid/min.
- Rate of acid production compared to sucrose ([1]; in words, 5,000 micrograms per unit volume): relatively low rate of acid production
- Mutagenic activity without metabolic activation ([2]; in absence of activating system): No significant mutagenic activity
- Mutagenic activity with metabolic activation ([2]; in presence of activating system from livers of Aroclor 1254-pretreated rats): No significant mutagenic activity
- Taste [3]: sweet
- Inhibition of acid production from sucrose [4]: failed to reduce the rate of acid production
- Acute toxicity for mice [5]: non-toxic
